Patent US10214512B2, “Factor XIA inhibitors” (MERCK SHARP & DOHME CORP., priority 2015, dated 2019)

target: purified human Factor XIa (Homo sapiens (Human), UniProt P03951); experiment: Factor XIa Assay; assay type: biochemical; settings: purified human Factor XIa 40 pM; substrate Z-Gly-Pro-Arg-AFC 100 μM; 50 mM HEPES pH 7.4; read-out: Human FXIa Ki
Procedure: The effectiveness of a compound of the present invention as an inhibitor of Coagulation Factor XIa can be determined using a relevant purified serine protease, and an appropriate synthetic substrate. The rate of hydrolysis of the chromogenic or fluorogenic substrate by the relevant serine protease was measured both in the absence and presence of compounds of the present invention. Assays were conducted at rt or at 37° C. […] A decrease in the rate of fluorescence change in the presence of inhibitor is indicative of enzyme inhibition. Such methods are known to one skilled in the art. The results of this assay are expressed as the inhibitory constant, Ki.
Factor XIa determinations were made in 50 mM HEPES buffer at pH 7.4 containing 150 mM NaCl, 5 mM CaCl2, and 0.1% PEG 8000 (polyethylene glycol; JT Baker or Fisher Scientific). Determinations were made using purified human Factor XIa at a final concentration of 40 pM (Sekisui Diagnostics) and he synthetic substrate, Z-Gly-Pro-Arg-AFC, TFA salt (Sigma #C0980) at a concentration of 100 μM.
Times required to achieve equilibration between enzyme and inhibitor were determined in control experiments. Initial velocities of product formation in the absence (Vo) or presence of inhibitor (Vi) were measured. Assuming competitive inhibition, and that unity is negligible compared Km/[S], [I]/e, and [I]/e (where [S], [I], and e respectively represent the total concentrations, of substrate, inhibitor and enzyme), the equilibrium constant (Ki) for dissociation of the inhibitor from the enzyme can be obtained from the dependence of Vo/Vi on [I] shown in the following equation.

Chain of purified human Factor XIa (P03951 388-625): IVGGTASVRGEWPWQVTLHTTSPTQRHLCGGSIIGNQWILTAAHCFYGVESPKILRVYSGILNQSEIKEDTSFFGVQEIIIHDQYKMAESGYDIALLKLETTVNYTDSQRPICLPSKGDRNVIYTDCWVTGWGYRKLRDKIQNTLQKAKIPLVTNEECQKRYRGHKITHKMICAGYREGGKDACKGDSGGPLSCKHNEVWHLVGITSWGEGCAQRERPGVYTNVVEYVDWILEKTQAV
Chain of purified human Factor XIa (P03951 19-387 partner): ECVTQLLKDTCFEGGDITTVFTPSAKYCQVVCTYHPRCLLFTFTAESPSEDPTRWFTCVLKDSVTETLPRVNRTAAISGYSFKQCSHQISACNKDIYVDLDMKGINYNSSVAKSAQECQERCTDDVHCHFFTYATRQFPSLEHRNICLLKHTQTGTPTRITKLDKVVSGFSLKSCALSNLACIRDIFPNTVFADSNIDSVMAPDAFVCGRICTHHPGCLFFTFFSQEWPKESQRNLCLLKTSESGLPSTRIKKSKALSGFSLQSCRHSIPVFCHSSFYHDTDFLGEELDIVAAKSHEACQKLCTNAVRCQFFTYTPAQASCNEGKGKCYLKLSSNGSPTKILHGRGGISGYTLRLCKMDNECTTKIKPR

| Structure (SMILES) | Ki [nM] |
| --- | --- |
| COC(=O)Nc1ccc2c(c1)NC(=O)CCCCC(c1ccc(-c3c(F)ccc(Cl)c3F)c[n+]1[O-])c1cnn-2c1 (racemic) [Example 162, (Z)-5-(3-chloro-2,6-difluorophenyl)-2-(2^5-((methoxycarbonyl)amino)-4-oxo-1^1H-3-aza-1(1,4)-pyrazola-2(1,2)-benzenacyclononaphane-9-yl)pyridine 1-oxide] | 6.8 |
| O=C1CCCCC(c2ccc(-c3cc(Cl)ccc3-n3cnnn3)cn2)c2nc(c[nH]2)-c2cc(F)ccc2N1 (single isomer, unassigned) [Example 10-a, (Z)-9-(5-(5-chloro-2-(1H-tetrazol-1-yl)phenyl)pyridin-2-yl)-2^5-fluoro-1^1H -3-aza-1(4,2)-imidazola-2(1,2)-benzenacyclononaphan-4-one] | 83.8 |
| COC(=O)Nc1ccc2c(c1)NC(=O)C(C)CCCC(c1ccc(-c3c(F)ccc(Cl)c3F)c[n+]1[O-])c1cccc-2c1 (single isomer, unassigned) [Example 50-c, 5-(3-chloro-2,6-difluorophenyl)-2-(2^4-((methoxycarbonyl)amino)-5-methyl-4-oxo-3-aza-1(1,3),2(1,2)-dinenzenacyclononaphane-9-yl)pyridine 1-oxide] | 270 |
| COC(=O)Nc1ccc2c(c1)NC(=O)C(C)CCCC(c1ccc(-c3c(F)ccc(Cl)c3F)c[n+]1[O-])c1cccc-2c1 (single isomer, unassigned) [Example 50-d, 5-(3-chloro-2,6-difluorophenyl)-2-(2^4-((methoxycarbonyl)amino)-5-methyl-4-oxo-3-aza-1(1,3),2(1,2)-dinenzenacyclononaphane-9-yl)pyridine 1-oxide] | 209 |
| COC(=O)Nc1ccc2c(c1)NC(=O)CCCC[C@H](c1ccc(-c3c(F)ccc(Cl)c3F)c[n+]1[O-])c1cc(F)cc-2c1 (single isomer, unassigned) [Example 67] | 0.55 |
| O=C(C1CCCCC(c2ccc(-c3cc(Cl)ccc3-n3cnnn3)c[n+]2[O-])c2cccc(c2)-c2cc(F)ccc2N1)N1CCCC1 (single isomer, unassigned) [Example 79-a, 5-(5-Chloro-2-(1H-tetrazol-1-yl)phenyl)-2-(2^5-fluoro-4-(pyrrolidine-1-carbonyl)-3-aza-1(1,3),2(1,2)-dibenzenacyclononaphane-9-yl)pyridine 1-oxide] | 47.8 |
| COC(=O)Nc1cc(F)c2c(c1)NC(=O)C(C)CCCC(c1ccc(-c3c(F)ccc(Cl)c3F)c[n+]1[O-])c1cccc-2c1 (single isomer, unassigned) [Example 85-a, 5-(3-Chloro-2,6-difluorophenyl)-2-(2^6-fluoro-2^4-((methoxycarbonyl)amino)-5-methyl-4-oxo-3-aza-1(1,3),2(1,2)-dibenzenacyclononaphane-9-yl)pyridine 1-oxide] | > 875 |
| COC(=O)Nc1cc(F)c2c(c1)NC(=O)C(C)CCCC(c1ccc(-c3c(F)ccc(Cl)c3F)c[n+]1[O-])c1cccc-2c1 (single isomer, unassigned) [Example 85-d, 5-(3-Chloro-2,6-difluorophenyl)-2-(2^6-fluoro-2^4-((methoxycarbonyl)amino)-5-methyl-4-oxo-3-aza-1(1,3),2(1,2)-dibenzenacyclononaphane-9-yl)pyridine 1-oxide] | 160 |
| COC(=O)Nc1ccc2c(c1)NC(=O)C(C)CCCC(c1ccc(-c3c(F)ccc(Cl)c3F)c[n+]1[O-])c1ccc(F)c-2c1 (single isomer, unassigned) [Example 86-b, 5-(3-Chloro-2,6-difluorophenyl)-2-(1^6-fluoro-2^4-((methoxycarbonyl)amino)-5-methyl-4-oxo-3-aza-1(1,3),2(1,2) -dibenzenacyclononaphane-9-yl)pyridine 1-oxide] | 782 |
| COC(=O)Nc1ccc2c(c1)NC(=O)C(C)CCCC(c1ccc(-c3c(F)ccc(Cl)c3F)c[n+]1[O-])c1ccc(F)c-2c1 (single isomer, unassigned) [Example 86-c, 5-(3-Chloro-2,6-difluorophenyl)-2-(1^6-fluoro-2^4-((methoxycarbonyl)amino)-5-methyl-4-oxo-3-aza-1(1,3),2(1,2) -dibenzenacyclononaphane-9-yl)pyridine 1-oxide] | 115 |
| O=C1CCCCC(c2ccc(-c3c(-n4cc(C(=O)O)nn4)ccc(Cl)c3F)cn2)c2cc(ncc2F)-c2cc(F)ccc2N1 (single isomer, unassigned) [Example 91-a] | 11 |
| O=C1CCCCC(c2ccc(-c3c(F)ccc(Cl)c3F)c[n+]2[O-])c2nc(c[nH]2)-c2cc(C(=O)O)ccc2N1 (single isomer, unassigned) [Example 106-a, (Z)-2-(2^5-carboxy-4-oxo-1^1H-3-aza-1(4,2)-imidazola-2(1,2) -benzenacyclononaphane-9-yl)-5-(3-chloro-2,6-difluorophenyl)pyridine 1-oxide] | 2.54 |
| O=C1CCCCC(O)(c2ccc(-c3cc(Cl)ccc3-n3cnnn3)c[n+]2[O-])c2nc(c[nH]2)-c2cc(F)ccc2N1 (single isomer, unassigned) [Example 107-a, (Z)-5-(5-Chloro-2-(1H-tetrazol-1-yl)phenyl)-2-(2^5-fluoro-9-hydroxy-4-oxo-1^1H-3-aza-1(4,2)-imidazola-2(1,2)-benzenacyclononaphane-9-yl)pyridine 1-oxide] | 46 |
| CCOC(=O)Nc1ccc2c(c1)NC(=O)CCCC[C@H](c1ccc(-c3c(F)ccc(Cl)c3F)c[n+]1[O-])c1nc-2c(C)[nH]1 (single isomer, unassigned) [Example 134] | 0.17 |
| COC(=O)Nc1ccc2c(c1)NC(=O)CCCC[C@H](c1ccc(-c3c(-n4cc(C(F)(F)F)cn4)ccc(Cl)c3F)c[n+]1[O-])c1nc-2c(C)[nH]1 (single isomer, unassigned) [Example 135] | 198 |
| CCc1[nH]c2nc1-c1ccc(NC(=O)OC)cc1NC(=O)CCCC[C@@H]2c1ccc(-c2c(-n3cc(C(F)(F)F)cn3)ccc(Cl)c2F)c[n+]1[O-] (single isomer, unassigned) [Example 136] | 168 |
| COC(=O)Nc1ccc2c(c1)NC(=O)CCCC[C@H](c1ccc(-c3ccccc3-n3cc(C)cn3)c[n+]1[O-])c1nc-2c(C)[nH]1 (single isomer, unassigned) [Example 140] | 40 |
| COC(=O)Nc1ccc2c(c1)NC(=O)[C@H](C)CCC[C@@H](c1ccc(-c3c(F)cccc3F)c[n+]1[O-])c1nc-2c(C)[nH]1 (single isomer, unassigned) [Example 143-d] | 18.6 |
| COC(=O)Nc1ccc2c(c1)NC(=O)C[C@H]1C[C@@H]1C[C@H](c1ccc(-c3c(F)ccc(Cl)c3F)c[n+]1[O-])c1nc-2c(C)[nH]1 (single isomer, unassigned) [Example 154] | 0.4 |
| COC(=O)Nc1ccc2c(c1)NC(=O)C[C@H]1C[C@@H]1C[C@H](c1ccc(-c3c(F)cccc3F)c[n+]1[O-])c1nc-2c(C)[nH]1 (single isomer, unassigned) [Example 155] | 11.4 |
| C[C@@H]1CCC[C@@H](c2ccc(-c3cc(Cl)ccc3-n3cc(Cl)nn3)c[n+]2[O-])c2cccc(c2)-c2c(cnn2C(F)F)NC1=O (single isomer, unassigned) [Example 166-b] | 195 |
| C[C@H]1CCC[C@H](c2ccc(-c3cc(Cl)ccc3-n3cc(Cl)nn3)c[n+]2[O-])c2cccc(c2)-c2c(cnn2C(F)F)NC1=O (single isomer, unassigned) [Example 166-c] | 9.4 |
| C[C@H]1CCC[C@@H](c2ccc(-c3cc(Cl)ccc3-n3cc(Cl)nn3)c[n+]2[O-])c2cccc(c2)-c2c(cnn2C(F)F)NC1=O (single isomer, unassigned) [Example 166-d] | > 875 |
| O=C1CCCC[C@H](c2ccc(-c3c(F)ccc(Cl)c3F)c[n+]2[O-])c2cccc(c2)-c2c(cnn2C(F)F)N1 (single isomer, unassigned) [Example 171] | > 875 |
| C[C@H]1CCC[C@H](c2ccc(-c3ccccc3-n3cc(Cl)nn3)c[n+]2[O-])c2cccc(c2)-c2c(cnn2C(F)F)NC1=O (single isomer, unassigned) [Example 172-b] | 11.9 |
| O=C1CCCC[C@@H](c2ccc(-c3cc(Cl)ccc3-n3cnnn3)cn2)c2cccc(c2)-c2cc(F)ccc2N1 [Example 1-b, (R)-9-(5-(5-Chloro-2-(1H-tetrazol-1-yl)phenyl)pyridin-2-yl)-2^5-fluoro-3-aza-1(1,3),2(1,2)-dibenzenacyclononaphan-4-one] | 504 |
| O=C1CCCC[C@@H](c2ccc(-c3cc(Cl)ccc3-n3cnnn3)c[n+]2[O-])c2cccc(c2)-c2cc(F)ccc2N1 [Example 2-b, (R) 5-(5-chloro-2-(1H-tetrazol-1-yl)phenyl)-2-(2^5-fluoro-4-oxo-3-aza-1(1,3),2(1,2)-dibenzenacyclononaphane-9-yl)pyridine 1-oxide] | 83.1 |
| COC(=O)Nc1ccc2c(c1)NC(=O)CCCCC(c1ccc(-c3c(F)ccc(Cl)c3F)cn1)c1cccc-2c1 (stereo not shown) [Example 12, methyl (9-(5-(3-chloro-2,6-difluorophenyl)pyridin-2-yl)-4-oxo-3-aza-1(1,3),2(1,2)-dibenzenacyclononaphane-2^4-yl)carbamate] | 593 |
